The structures appear in SMILES notation. The source made the active and inactive calls.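 How the source made its calls: active means IC50 against T. cruzi CYP51 below a set limit; inactive means the rest.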

This assay deals with Sterol 14-alpha demethylase (Trypanosoma cruzi (strain CL Brener)) (UniProt Q7Z1V1). Kind of assay: TcCYP51 inhibitors, dose response, mechanism study for T. cruzi antiparasitic project, biochemical, recombinant enzyme (AID 1159558).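 Further: enzyme in bacterial membranes with Anopheles gambiae CYP reductase and cytochrome b5 partners.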 The conditions noted are these: recombinant T. cruzi CYP51, BOMCC fluorescence.
Chain of Sterol 14-alpha demethylase (Trypanosoma cruzi (strain CL Brener)) (Q7Z1V1 whole entry, looked up): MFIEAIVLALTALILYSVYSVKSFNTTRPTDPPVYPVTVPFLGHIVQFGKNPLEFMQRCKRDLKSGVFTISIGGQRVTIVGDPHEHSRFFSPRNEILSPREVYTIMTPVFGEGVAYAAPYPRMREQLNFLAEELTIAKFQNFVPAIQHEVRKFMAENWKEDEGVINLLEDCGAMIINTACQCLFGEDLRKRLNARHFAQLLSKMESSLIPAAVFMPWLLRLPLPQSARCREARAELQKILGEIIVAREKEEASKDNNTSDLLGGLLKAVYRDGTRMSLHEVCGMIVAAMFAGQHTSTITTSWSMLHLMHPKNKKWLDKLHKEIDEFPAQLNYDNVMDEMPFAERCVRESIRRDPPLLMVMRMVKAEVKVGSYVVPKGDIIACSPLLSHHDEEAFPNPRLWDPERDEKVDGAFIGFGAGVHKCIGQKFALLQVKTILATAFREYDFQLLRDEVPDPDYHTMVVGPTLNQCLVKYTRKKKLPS
Consider `COc1cc(C2SCC(=O)Nc3c2c(C)nn3-c2nc3ccccc3s2)cc(OC)c1O` (stereo not given), for which the concentration for half-maximal inhibition (IC50) (usually the concentration at which inhibition is half-maximal) is 5 µM.

As to `Cc1cc(Nc2ccc(C#N)c(Cl)c2C)n[nH]1`, the half-maximal inhibitory concentration (IC50) is 40 µM.

With `COCCn1cnc2cc(NC(=O)C3CCCCC3)cc(C(=O)N3CCc4sccc4C3)c21`, the IC50 was 50 µM.

With `Cn1nc(-c2ccc(NC(=O)Cc3ccccc3Cl)cc2)c2c(N)ncnc21`, the IC50 was 63 µM.

As for `O=C(NC1C(=O)N(c2ccccc2)C1c1cccnc1)c1ccc(Cl)s1` (stereo not given), the IC50 was 0.2 µM.

Consider `Cc1cc2nc(CN(C)Cc3ncccc3C)[nH]c2cc1C`, for which the IC50 is 79 µM.

In the case of `O=C(Nc1ccc(C(F)(F)F)cc1)NC1(C(=O)NCc2ccco2)CCCCC1`, the IC50 was > 32 µM (inactive).

Regarding `Cc1cc2cncn2c(C2CCCCN2C(=O)c2cccs2)n1` (stereo not given), the IC50 is 0.1 µM.

As for `O=C(Nc1nc2cc(Cl)ccc2o1)c1cccc(Cl)c1`, the IC50 is > 100 µM (inactive).

In the case of `O=C(CC1(O)C(=O)N(Cc2ccccc2)c2ccc(Br)cc21)c1cccnc1` (stereo not given), the IC50 is 4 µM.

As for `COc1ccc2ncc(Cl)c(CCN3CC[C@@H](NCc4cc5c(cn4)OCS5)[C@H](O)C3)c2n1`, the IC50 was 1 µM.

As to `CC1CCCN(S(=O)(=O)c2ccc(C(=O)Nc3nc(-c4ccccn4)cs3)cc2)C1` (stereo not given), the concentration for half-maximal inhibition (IC50) is 2.5 µM.

Consider `CC(c1ccccn1)N(C)Cc1nc2ccccc2n1C(C)C` (stereo not given), for which the IC50 was 32 µM.

Turning to `COc1ccc(CN(C)Cc2ccncc2)cc1-c1ccc(S(=O)(=O)NC2CCC2)s1`, the IC50 was 0.079 µM.

Consider `Cc1cc(NC(=O)CC2CCCCC2)n(-c2nc3c(c(=O)[nH]2)CCC3)n1`, for which the IC50 is > 100 µM (inactive).

Turning to `CCCN1CCN(Cc2ccc(S(=O)(=O)Nc3cccc(C)c3)cc2)CC1`, the IC50 is > 100 µM (inactive).

Regarding `O=C(Nc1ncc([N+](=O)[O-])s1)C1CC1`, the IC50 was > 100 µM (inactive).

`Cc1cccc(NS(=O)(=O)c2ccc3c(c2)C(=O)c2cc(S(=O)(=O)Nc4cccc(C)c4C)ccc2-3)c1C`: the IC50 is > 100 µM (inactive).

As to `Cc1cc(Br)sc1CNCCCNc1cc(=O)c2ccccc2[nH]1`, the IC50 is 63 µM.

For the compound `CC(C)(C)C(=O)Nc1cc(C2CC2)nn1-c1nc2c(c(=O)[nH]1)CCCC2`, the IC50 is > 100 µM (inactive).

As for `COc1cc(OC)cc(C(=O)N[C@@H](CC(C)C)C(=O)NC2(C#N)CC2)c1`, the IC50 is > 100 µM (inactive).

In the case of `CCC(c1ccc(F)cc1)n1cncc1-c1cnn(C)c1` (stereo not given), the IC50 was 0.079 µM.

In the case of `C[C@@H](Oc1cc(-n2cnc3ccc(O[C@H]4CCNC4)cc32)sc1C(N)=O)c1ccccc1Cl`, the IC50 was 1.3 µM.

As for `Cc1cc(=O)n2nc(Oc3ccc(C#N)cc3Cl)sc2n1`, the IC50 is > 100 µM (inactive).

For the compound `CC(C)S(=O)(=O)c1ccc(-c2cnc(N)c3cc(-c4ccnc(N)n4)ccc23)cc1`, the IC50 was 16 µM.

With `COc1cccc(CCNC(=O)C(c2cn[nH]c2)N2CCN(c3ccc(Cl)cc3)CC2)c1` (stereo not given), the IC50 is 0.063 µM.

`O=C(NCC1CCCCN1C(=O)c1cccc2ccccc12)c1ccccc1` (stereo not given): the IC50 is > 100 µM (inactive).

On to `COc1ccc(OC)c(S(=O)(=O)N(Cc2c(F)cccc2F)[C@@H]2CCN(C#N)C2)c1`, for which the IC50 is > 100 µM (inactive).

With `Cc1ccccc1NS(=O)(=O)c1ccc2[nH]cc(C(=O)NC3CCCCC3)c(=O)c2c1`, the IC50 is 10 µM.

On to `N#Cc1cccc(Nc2nccc(N3CCC(NS(=O)(=O)c4cccc(C#N)c4)CC3)n2)c1`, for which the IC50 was 7.9 µM.

`N#CN1CC[C@@H](NC(=O)Nc2ccccc2Oc2ccccc2)C1`: the IC50 was > 100 µM (inactive).

Consider `Cc1cn[nH]c1C1CCCN(Cc2nc3ccccc3n2C)C1` (stereo not given), for which the IC50 was 1.3 µM.

As to `CNc1cc(C)nc(C2CN(C(=O)c3n[nH]c4ccccc34)CCO2)c1` (stereo not given), the IC50 is > 100 µM (inactive).

On to `COc1ccc([N+](=O)[O-])cc1NC(=O)c1cc(Cl)ccc1O`, for which the IC50 is > 100 µM (inactive).

As for `Cc1c(Nc2cc(C3CC3)[nH]n2)ccc(C#N)c1Cl`, the concentration for half-maximal inhibition (IC50) is 20 µM.

Turning to `Cc1ccc(S(=O)(=O)Nc2ccc(CN3CCN(C(=O)c4cccc(C#N)c4)CC3)cc2)cc1`, the IC50 is > 100 µM (inactive).

Turning to `O=C(CSc1nnc2ccc(-c3ccc(F)cc3)nn12)N1CCCCC1`, the IC50 is > 100 µM (inactive).

Take `O=C(Nc1ccccc1)Nc1nc(-c2ccccn2)cs1`: the IC50 is 32 µM.

Consider `Cc1ccc2c(c1)SC(C(=O)Nc1n[nH]c(-c3ccccn3)n1)C2` (stereo not given), for which the IC50 was > 100 µM (inactive).

In the case of `CN(C)Cc1cccc(Nc2nccc(-c3ccc(NCCN)c(C#N)c3)n2)c1`, the IC50 was 6.3 µM.

In the case of `CC(=O)Nc1ccc(-c2noc(CC3CCCN(Cc4cccc(F)c4C)C3)n2)cc1` (stereo not given), the IC50 was > 100 µM (inactive).

In the case of `Oc1c(-c2n[nH]c(Cc3ccc(F)cc3)n2)ncc2cccnc12`, the IC50 was > 100 µM (inactive).

As for `O=C(Nc1cccc(F)c1)N1CCC(Oc2cccc(-c3cccnc3)c2)CC1`, the IC50 was 0.16 µM.

Regarding `Cc1cc(Nc2cc(C3CC3)[nH]n2)nc(N2CCCC2)n1`, the IC50 was > 100 µM (inactive).

As to `COc1ccc(NS(=O)(=O)c2cccc(NC(=O)c3cc(F)cc(F)c3)c2)cc1`, the IC50 is > 100 µM (inactive).

Consider `CC(CCc1ccccc1)NC(=O)CN(Cc1ccccn1)Cc1ccccn1` (stereo not given), for which the half-inhibitory concentration (IC50) was 63 µM.

As for `O=C(Nc1ccccc1C(=O)Nc1ccccn1)c1ccco1`, the IC50 was > 100 µM (inactive).

As to `NC(=O)c1ccc(-c2cccc(OCCN3CCN(C4CCCCC4)CC3)c2)cc1`, the half-maximal inhibitory concentration (IC50) was 40 µM.

As to `Cc1nc2c(-c3n[nH]c(-c4ccccc4N)n3)cccn2c1C`, the IC50 is 3.2 µM.

`CS(=O)(=O)c1ccc(CC(=O)Nc2nc(-c3ccc(Cl)s3)cs2)cc1`: the IC50 is > 100 µM (inactive).

With `COc1ccccc1CNc1cc(C2CC2)nc(-c2nccn2C)n1`, the IC50 is 20 µM.

Regarding `CC(C)(C)C(=O)NCCc1csc(-c2ccc(F)cc2)n1`, the IC50 was 79 µM.

For the compound `CC(c1ccc2c(c1)CCCC2)N(C)c1ncc2c(N)nc(N)nc2n1` (stereo not given), the IC50 was 25 µM.

`COc1cc(-c2nc(N3CCOCC3)sc2-c2ccnc(NC3CCOCC3)n2)ccc1Cl`: the IC50 is > 100 µM (inactive).

Take `Cc1ccccc1NS(=O)(=O)c1ccc2[nH]cc(C(=O)NC3CCCC3)c(=O)c2c1`: the IC50 is 13 µM.

Turning to `c1ccc(CNc2cccc3ccncc23)cc1`, the IC50 was 0.1 µM.

Consider `COc1cnc2ccc(=O)n(CCN3CCC(NC(=O)Cc4ccc(Cl)c(Cl)c4)CC3)c2c1`, for which the IC50 was 0.79 µM.

For `CNc1nc(C)nc(N2CCc3cc(C(=O)NCc4ccc(-c5ccn[nH]5)cc4Cl)ccc32)n1`, the half-inhibitory concentration (IC50) was 5 µM.

With `COc1cc2c(cc1OC)[C@H]1[C@@H](C)c3ccc(OC)c(OC)c3CN1CC2`, the IC50 was 79 µM.

With `CN(Cc1nc2ccccc2s1)C(=O)C=Cc1cc2ccccc2o1`, the IC50 was 0.16 µM.

As to `COc1ccc(CNc2nsc3ccccc23)cc1OC`, the IC50 is 13 µM.

Turning to `CCN(CC)S(=O)(=O)c1ccc(OC)c(NC(=O)c2ccc([N+](=O)[O-])s2)c1`, the IC50 was 32 µM.

Consider `CS(=O)(=O)c1ccccc1C(=O)N(Cc1ccccc1)c1ccccc1`, for which the IC50 is 20 µM.

Regarding `COc1ccc(C(C)(C)C)cc1S(=O)(=O)n1ccnc1`, the IC50 was 0.0079 µM.

On to `COc1ccc(C(=O)Nc2c(C)nn(COc3cccc(C(F)(F)F)c3)c2C)cc1`, for which the IC50 was 13 µM.

On to `O=C(CN1CCN(c2ccccn2)CC1)Nc1cc(S(=O)(=O)N2CCCCCC2)ccc1Cl`, for which the IC50 is 3.2 µM.

In the case of `CCc1ccccc1[C@@H](C)NC(=O)c1cnc2c(cnn2CC)c1NC1CCN(C(N)=O)CC1`, the IC50 is 79 µM.

With `O=S(=O)(NCC(c1cccnc1)N1CCN(c2ccccc2F)CC1)c1ccc(F)cc1` (stereo not given), the IC50 is 0.079 µM.

Take `COc1ccccc1-c1c(C)[nH]c2nc(N)nc(C)c12`: the IC50 was > 100 µM (inactive).

`COc1ccc(C(=O)N2CCC(Nc3cccnc3)C2)c(OC)n1` (stereo not given): the IC50 was 0.063 µM.

As for `COc1ccc(-c2nc3ncccc3o2)cc1NC(=O)c1cccs1`, the IC50 is > 100 µM (inactive).

For the compound `Cc1cc(-c2cccc3ccccc23)nc2nc(N)nc(N)c12`, the IC50 was > 100 µM (inactive).

Regarding `NS(=O)(=O)c1ccc(Nc2nccc(-c3cnn4ncccc34)n2)cc1`, the IC50 is > 100 µM (inactive).

In the case of `Cc1cc(C)n(-c2nc(NC(C)(C)C)nc(N3CCOCC3)n2)n1`, the IC50 is > 100 µM (inactive).

Take `c1cc(-c2ncc(-c3ccn[nH]3)s2)ccn1`: the IC50 was 0.04 µM.

For the compound `O=C(Nc1nc(-c2ccccn2)cs1)c1ccccc1-n1cnnn1`, the IC50 was > 100 µM (inactive).

Take `CS(=O)(=O)c1ccc(Nc2nccc(Nc3n[nH]c4ccc(F)cc34)n2)c(F)c1`: the concentration for half-maximal inhibition (IC50) is 40 µM.

On to `CCN(C)Cc1ccc(N2CCC(NS(=O)(=O)c3ccc4c(c3)CCO4)CC2)nc1`, for which the IC50 is > 100 µM (inactive).

For the compound `CCC(CC)C(=O)Nc1cccc(C(=O)Nc2nnc(C3CCCCC3)s2)c1`, the IC50 is > 100 µM (inactive).

Take `COc1cc(C(C)C)c(S(C)(=O)=O)cc1C(=O)N1CCN(c2ccccc2Cl)CC1`: the IC50 is > 100 µM (inactive).

As for `O=S(=O)(NCC(c1cccnc1)N1CCN(c2ccc(F)cc2)CC1)c1cccs1` (stereo not given), the IC50 is 0.04 µM.

For `Nc1nc(-c2ccccn2)nc(-n2nc(-c3cccc(C(F)(F)F)c3)cc2N)n1`, the IC50 was > 100 µM (inactive).

For `COc1ccc(C(=O)Nc2cc(C(F)(F)F)ccc2N2CCOCC2)c(OC)c1`, the IC50 was > 100 µM (inactive).

On to `O=[N+]([O-])c1cccc(Nc2cncc(-c3ccccc3CO)c2)c1`, for which the IC50 was 3.2 µM.

`COc1ccc(Nc2nccc(N(C)c3n[nH]c4c(F)cccc34)n2)cc1S(C)(=O)=O`: the IC50 is 32 µM.

Regarding `CNc1cc(Cn2c(C(=O)c3cc(C)cc(Cl)c3)c(C(C)C)c(=O)[nH]c2=O)ccn1`, the IC50 was 0.032 µM.

For `COc1ccc(C(C)N(C)c2ncc3c(N)nc(N)nc3n2)cc1F` (stereo not given), the IC50 was > 100 µM (inactive).

`Cc1nn(-c2nc3ccccc3[nH]2)c2c1C(c1ccc(O)cc1)CC(=O)N2` (stereo not given): the concentration for half-maximal inhibition (IC50) is 25 µM.

With `O=c1cc(CSc2ccc(Cl)cc2)nc(-c2ccccn2)[nH]1`, the IC50 is 63 µM.

As to `Cc1ccccc1CNc1cc(C2CC2)nc(-c2nccn2C)n1`, the half-maximal inhibitory concentration (IC50) is 16 µM.

These data come from PubChem BioAssay AID1159558 (GlaxoSmithKline (GSK), 2015).
